From PubChem BioAssay (NCI)
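Five concentrations, 48 hours, 96-well plates. TGI denotes the concentration required for complete inhibition of growth.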

Experiments:
Assay in all cases: NCI anticancer screen, dose series, 48 h
SK-MEL-2 melanoma = test system: SK-MEL-2 melanoma
OVCAR-4 ovarian = test system: OVCAR-4 ovarian
SN12C renal = test system: SN12C renal
SF-268 CNS = test system: SF-268 CNS
EKVX NSCLC = test system: EKVX NSCLC
HCT-116 colon = test system: HCT-116 colon
UACC-257 melanoma = test system: UACC-257 melanoma
HCC-2998 colon = test system: HCC-2998 colon
KM12 colon = test system: KM12 colon
NCI-H522 lung = test system: NCI-H522 lung
MCF7 breast = test system: MCF7 breast
SK-MEL-28 melanoma = test system: SK-MEL-28 melanoma
SK-MEL-5 melanoma = test system: SK-MEL-5 melanoma
NCI/ADR-RES ovarian = test system: NCI/ADR-RES ovarian
NCI-H23 lung = test system: NCI-H23 lung
SW-620 colon = test system: SW-620 colon
SNB-19 CNS = test system: SNB-19 CNS
HOP-92 NSCLC = test system: HOP-92 NSCLC
COLO 205 colon = test system: COLO 205 colon
OVCAR-3 ovarian = test system: OVCAR-3 ovarian

Row | SMILES | TGI (SK-MEL-2 melanoma) | TGI (OVCAR-4 ovarian) | TGI (SN12C renal) | TGI (SF-268 CNS) | TGI (EKVX NSCLC) | TGI (HCT-116 colon) | TGI (UACC-257 melanoma) | TGI (HCC-2998 colon) | TGI (KM12 colon) | TGI (NCI-H522 lung) | TGI (MCF7 breast) | TGI (SK-MEL-28 melanoma) | TGI (SK-MEL-5 melanoma) | TGI (NCI/ADR-RES ovarian) | TGI (NCI-H23 lung) | TGI (SW-620 colon) | TGI (SNB-19 CNS) | TGI (HOP-92 NSCLC) | TGI (COLO 205 colon) | TGI (OVCAR-3 ovarian)
1 | CC(C(=O)O)c1cnn(-c2ccccc2)c1-n1cccc1 (configuration not stated) | > 100 µM | > 100 µM | > 100 µM | > 100 µM | > 100 µM | > 100 µM | > 100 µM | > 100 µM | > 100 µM | > 100 µM | > 100 µM | > 100 µM | > 100 µM | > 100 µM | > 100 µM | > 100 µM | > 100 µM | > 100 µM | > 100 µM | > 100 µM
2 | Cc1cc(NS(=O)(=O)c2ccc(N=Nc3c(O)c(C(=O)O)cc4ccccc34)cc2)nc(C)n1 | > 100 µM | > 100 µM |  | > 100 µM | > 100 µM | > 100 µM | > 100 µM | > 100 µM | > 100 µM | > 100 µM | > 100 µM | > 100 µM | > 100 µM | > 100 µM |  | > 100 µM | > 100 µM | > 100 µM | > 100 µM | > 100 µM
3 | CN(CCCNc1ccc2ncn3c4ccccc4c(=O)c1c23)CCCN1C(=O)c2cccc3cc([N+](=O)[O-])cc(c23)C1=O | 6.88 µM | 2.75 µM | 1.78 µM | 2.28 µM | 2.16 µM | 0.02 µM | 2.1 µM | 0.0916 µM | 1.36 µM | 1.48 µM | 0.114 µM | 2.86 µM |  | 1.69 µM | 1.5 µM |  | 2.28 µM | 6.39 µM | 1.06 µM | 2.29 µM
4 | CC[C@]12C=CCN3CC[C@@]4(c5ccc(OC)cc5N(C)[C@H]4[C@@](O)(C(=O)OC)[C@@H]1OC(C)=O)[C@@H]32 | > 200 µM | > 63.2 µM | > 200 µM | > 200 µM | > 200 µM | > 200 µM | > 200 µM | > 200 µM | > 200 µM | > 200 µM | > 200 µM | > 200 µM | > 200 µM | > 200 µM | > 200 µM | > 200 µM | > 200 µM | 132 µM | > 200 µM | > 112 µM
5 | C=CCNc1ccc(C)cc1 |  | > 100 µM | > 100 µM | > 100 µM |  | > 100 µM | > 100 µM | > 100 µM | > 100 µM | > 100 µM | > 100 µM | > 100 µM | > 100 µM | > 100 µM | > 100 µM | > 100 µM | > 100 µM | > 100 µM | > 100 µM | > 100 µM
6 | O=c1c2ccccc2nnn1-c1n[nH]c2ccccc12 | > 100 µM | > 100 µM | > 100 µM | > 100 µM | > 100 µM | > 100 µM | > 100 µM | > 100 µM | > 100 µM | > 100 µM | > 100 µM | > 100 µM | > 100 µM | > 100 µM | > 100 µM | > 100 µM | > 100 µM | > 100 µM | > 100 µM | > 100 µM
7 | COC(=O)C1(c2ccc(N(C)C)cc2OC)CCCN(C(=O)Oc2ccccc2[N+](=O)[O-])CCc2c1[nH]c1ccccc21 (configuration not stated) | > 100 µM |  | > 100 µM | > 100 µM | > 100 µM | > 100 µM | > 100 µM | > 100 µM | > 100 µM | > 100 µM | > 100 µM | > 100 µM | > 100 µM | > 100 µM | > 100 µM | > 100 µM |  | > 100 µM | > 100 µM | > 100 µM
8 | CC(=O)OC[C@H]1[C@@H]2C(CC[C@]13CO3)OC(=O)CC(C)[C@]2(C)CCc1ccoc1 (some centres not stated) |  | > 100 µM | > 100 µM | > 100 µM | > 100 µM | > 100 µM | > 100 µM | > 100 µM | > 100 µM | > 100 µM | > 100 µM | > 100 µM | > 100 µM | > 100 µM | > 100 µM | > 100 µM | > 100 µM | > 100 µM | > 100 µM | > 100 µM
9 | C[N+](C)(N)CCC[N+](C)(C)N | > 100 µM | > 100 µM | > 100 µM | > 100 µM | > 100 µM | > 100 µM | > 100 µM |  | > 100 µM | > 100 µM | > 100 µM | > 100 µM | > 100 µM | > 100 µM | > 100 µM | > 100 µM | > 100 µM | > 100 µM | > 100 µM | > 100 µM
10 | CC(C)CCN=c1cc2n(-c3ccc(Cl)cc3)c3ccccc3nc-2cc1Nc1ccc(Cl)cc1 | 12.3 µM | 18.4 µM | 58.1 µM | > 100 µM | > 53 µM | 11.4 µM | 19.7 µM | 18.1 µM | > 41.2 µM | 7.06 µM | > 42 µM | > 82.8 µM | 25.3 µM | 28.6 µM | 12.1 µM | > 70.3 µM | > 100 µM | 16.8 µM | 12.9 µM | 6.61 µM
11 | Oc1ccc2ccccc2c1N=Nc1ccc(F)cc1 | > 100 µM | > 100 µM | > 100 µM | > 100 µM |  | > 100 µM |  | > 100 µM | > 100 µM | > 100 µM |  | > 100 µM | > 100 µM |  | > 100 µM | > 100 µM | > 100 µM | > 100 µM | > 100 µM | > 100 µM
12 | O=C(NCCCNC(=O)c1ccc2cc(O)c(O)cc2c1)c1ccc2cc(O)c(O)cc2c1 | 34 µM | 45.4 µM |  | > 100 µM | > 100 µM | > 100 µM | > 100 µM | 50.9 µM | > 100 µM | > 100 µM | > 100 µM | > 100 µM | 48.4 µM | > 100 µM | 63.5 µM | > 100 µM | 56.5 µM | 48 µM | > 100 µM | 
13 | CC[N+](C)(CC)Cc1ccccc1[N+](=O)[O-] | > 100 µM | > 100 µM | > 100 µM | > 100 µM | > 100 µM | > 100 µM | > 100 µM |  | > 100 µM | > 100 µM | > 100 µM | > 100 µM | > 100 µM | > 100 µM | > 100 µM | > 100 µM |  | > 100 µM | > 100 µM | 73.7 µM
14 | COc1ccc2c(c1)CCCc1cn[nH]c1-2 | > 100 µM | > 100 µM | > 100 µM | > 100 µM | > 100 µM | > 100 µM | > 100 µM | > 100 µM | > 100 µM | > 100 µM | > 100 µM | > 100 µM | > 100 µM | > 100 µM | > 100 µM | > 100 µM | > 100 µM | > 100 µM | > 100 µM | > 100 µM
